Measurements published in patent US6914045B2, “Glycopeptide antibiotics” (Wyeth Holdings Corporation, priority 2001, dated 2005).
≈ marks a conversion by molar mass, not a printed value.

How the values were obtained:
Experiment in all cases: in vitro antibacterial evaluation, MIC by broth dilution
Assay type in all cases: cell-based
[1] = tested on: Escherichia coli; details: 18 hours at 35° C.
[2] = tested on: Streptococcus sp.; details: broth dilution, 18 hours at 35° C.
How it was run: (§1)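 Broth dilution per NCCLS M7-A2 in Mueller-Hinton II medium, inoculum 5×10^5 CFU/mL, antibiotic range 64-0.06 μg/mL. MIC taken as lowest concentration inhibiting growth; Gram-positive panel includes recent clinical isolates resistant to methicillin, penicillin and/or vancomycin.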

[3] = tested on: Staphylococcus sp.; details: broth dilution, 18 hours at 35° C.
How it was run: as §1

[4] = tested on: Enterococcus sp.; details: broth dilution, 18 hours at 35° C.
How it was run: as §1

Structure (SMILES): CC(c1ccccc1)C1NC(=O)CNC(=O)C(CO)NC(=O)C(C(O)C2CNC(=N)N2C2OC(CO)C(O)C(O)C2O)NC(=O)C(C(O)C2CNC(=N)N2)NC(=O)C(Cc2ccc(OC3OC(CO)C(OC4OC(COCC=C(c5ccccc5)c5ccccc5)C(O)C(O)C4O)C(O)C3O)cc2)NC1=O (stereo not shown) [Example 241]
- MIC Escherichia coli (ATCC 25922) [1]: >64 µg/mL
- MIC Escherichia coli (GC 4559) [1]: >64 µg/mL
- MIC Escherichia coli (GC 4560) [1]: 2 µg/mL (≈ 1.34 µM)
- MIC Streptococcus agalactiae (GC 4564) [2]: <0.06 µg/mL
- MIC Streptococcus pneumoniae (ATCC 6301) [2]: <0.06 µg/mL
- MIC Streptococcus pneumoniae (GC 1894) [2]: <0.06 µg/mL
- MIC Streptococcus pneumoniae (GC 4565) [2]: <0.06 µg/mL
- MIC Streptococcus pyogenes (GC 4563) [2]: <0.06 µg/mL
- MIC Streptococcus pneumoniae (ATCC 6301) ([2]; inoculum 5×10^5 CFU/mL, strain ATCC 6301): <0.06 µg/mL
- MIC Streptococcus pneumoniae (GC 1894) ([2]; inoculum 5×10^5 CFU/mL, strain GC 1894): <0.06 µg/mL
- MIC Streptococcus pyogenes (GC 4563) ([2]; inoculum 5×10^5 CFU/mL, strain GC 4563): <0.06 µg/mL
- MIC Streptococcus agalactiae (GC 4564) ([2]; inoculum 5×10^5 CFU/mL, strain GC 4564): <0.06 µg/mL
- MIC Streptococcus pneumoniae (GC 4565) ([2]; inoculum 5×10^5 CFU/mL, strain GC 4565): <0.06 µg/mL
- MIC Coagulase Negative Staphylococcus (GC 4547) [3]: 2 µg/mL (≈ 1.34 µM)
- MIC Coagulase Negative Staphylococcus (GC 4548) [3]: 1 µg/mL (≈ 0.672 µM)
- MIC Coagulase Negative Staphylococcus (GC 4549) [3]: 2 µg/mL (≈ 1.34 µM)
- MIC Coagulase Negative Staphylococcus (GC 4551) [3]: 4 µg/mL (≈ 2.69 µM)
- MIC Coagulase Negative Staphylococcus (GC 6257) [3]: 2 µg/mL (≈ 1.34 µM)
- MIC Staphylococcus aureus (ATCC 29213) [3]: 2 µg/mL (≈ 1.34 µM)
- MIC Staphylococcus aureus (GC 1131) [3]: 2 µg/mL (≈ 1.34 µM)
- MIC Staphylococcus aureus (GC 3051) [3]: 2 µg/mL (≈ 1.34 µM)
- MIC Staphylococcus aureus (GC 3053) [3]: 2 µg/mL (≈ 1.34 µM)
- MIC Staphylococcus aureus (GC 4541) [3]: 2 µg/mL (≈ 1.34 µM)
- MIC Staphylococcus aureus (GC 4542) [3]: 2 µg/mL (≈ 1.34 µM)
- MIC Staphylococcus aureus (GC 4544) [3]: 2 µg/mL (≈ 1.34 µM)
- MIC Staphylococcus aureus (GC 4545) [3]: 2 µg/mL (≈ 1.34 µM)
- MIC Staphylococcus aureus-SMITH (GC 4543) [3]: 2 µg/mL (≈ 1.34 µM)
- MIC Staphylococcus haemolyticus (GC 4546) [3]: 2 µg/mL (≈ 1.34 µM)
- MIC Staphylococcus aureus (ATCC 29213) ([3]; strain ATCC 29213): 2 µg/mL (≈ 1.34 µM)
- MIC Staphylococcus aureus (GC 1131) ([3]; strain GC 1131): 2 µg/mL (≈ 1.34 µM)
- MIC Staphylococcus aureus (GC 3051) ([3]; strain GC 3051): 2 µg/mL (≈ 1.34 µM)
- MIC Staphylococcus aureus (GC 3053) ([3]; strain GC 3053): 2 µg/mL (≈ 1.34 µM)
- MIC Staphylococcus aureus (GC 4541) ([3]; strain GC 4541): 2 µg/mL (≈ 1.34 µM)
- MIC Staphylococcus aureus (GC 4542) ([3]; strain GC 4542): 2 µg/mL (≈ 1.34 µM)
- MIC Staphylococcus aureus-SMITH (GC 4543) ([3]; strain GC 4543): 2 µg/mL (≈ 1.34 µM)
- MIC Staphylococcus aureus (GC 4544) ([3]; strain GC 4544): 2 µg/mL (≈ 1.34 µM)
- MIC Staphylococcus aureus (GC 4545) ([3]; strain GC 4545): 2 µg/mL (≈ 1.34 µM)
- MIC Staphylococcus haemolyticus (GC 4546) ([3]; strain GC 4546): 2 µg/mL (≈ 1.34 µM)
- MIC Coagulase Negative Staphylococcus (GC 4547) ([3]; strain GC 4547): 2 µg/mL (≈ 1.34 µM)
- MIC Coagulase Negative Staphylococcus (GC 4548) ([3]; strain GC 4548): 1 µg/mL (≈ 0.672 µM)
- MIC Coagulase Negative Staphylococcus (GC 4549) ([3]; strain GC 4549): 2 µg/mL (≈ 1.34 µM)
- MIC Coagulase Negative Staphylococcus (GC 4551) ([3]; strain GC 4551): 4 µg/mL (≈ 2.69 µM)
- MIC Coagulase Negative Staphylococcus (GC 6257) ([3]; strain GC 6257): 2 µg/mL (≈ 1.34 µM)
- MIC Enterococcus avium (GC 4558) [4]: 4 µg/mL (≈ 2.69 µM)
- MIC Enterococcus faecalis (ATCC 29212) [4]: 4 µg/mL (≈ 2.69 µM)
- MIC Enterococcus faecalis (GC 2242) [4]: 4 µg/mL (≈ 2.69 µM)
- MIC Enterococcus faecalis (GC 2691) [4]: 4 µg/mL (≈ 2.69 µM)
- MIC Enterococcus faecalis (GC 3059) [4]: 2 µg/mL (≈ 1.34 µM)
- MIC Enterococcus faecalis (GC 4552) [4]: 4 µg/mL (≈ 2.69 µM)
- MIC Enterococcus faecalis (GC 4553) [4]: 4 µg/mL (≈ 2.69 µM)
- MIC Enterococcus faecalis (GC 4554) [4]: 4 µg/mL (≈ 2.69 µM)
- MIC Enterococcus faecalis (GC 6189) [4]: 2 µg/mL (≈ 1.34 µM)
- MIC Enterococcus faecium (GC 2243) [4]: 4 µg/mL (≈ 2.69 µM)
- MIC Enterococcus faecium (GC 4556) [4]: 4 µg/mL (≈ 2.69 µM)
- MIC Enterococcus faecium (GC 4557) [4]: 2 µg/mL (≈ 1.34 µM)
- MIC Enterococcus faecalis (ATCC 29212) ([4]; strain ATCC 29212): 4 µg/mL (≈ 2.69 µM)
- MIC Enterococcus faecium (GC 2243) ([4]; strain GC 2243): 4 µg/mL (≈ 2.69 µM)
- MIC Enterococcus faecalis (GC 4552) ([4]; strain GC 4552): 4 µg/mL (≈ 2.69 µM)
- MIC Enterococcus faecalis (GC 4553) ([4]; strain GC 4553): 4 µg/mL (≈ 2.69 µM)
- MIC Enterococcus faecalis (GC 4554) ([4]; strain GC 4554): 4 µg/mL (≈ 2.69 µM)
- MIC Enterococcus faecium (GC 4556) ([4]; strain GC 4556): 4 µg/mL (≈ 2.69 µM)
- MIC Enterococcus faecium (GC 4557) ([4]; strain GC 4557): 2 µg/mL (≈ 1.34 µM)
- MIC Enterococcus avium (GC 4558) ([4]; strain GC 4558): 4 µg/mL (≈ 2.69 µM)
- MIC Enterococcus faecalis (GC 6189) ([4]; strain GC 6189): 2 µg/mL (≈ 1.34 µM)
- MIC Enterococcus faecalis (GC 2242) ([4]; inoculum 5×10^5 CFU/mL, strain GC 2242): 4 µg/mL (≈ 2.69 µM)
- MIC Enterococcus faecalis (GC 2691) ([4]; inoculum 5×10^5 CFU/mL, strain GC 2691): 4 µg/mL (≈ 2.69 µM)
- MIC Enterococcus faecalis (GC 3059) ([4]; inoculum 5×10^5 CFU/mL, strain GC 3059): 2 µg/mL (≈ 1.34 µM)
